Reference: US7799824B2, “Quaternary salt CCR2 antagonists” (OraPharma, Inc., priority 2004, dated 2010)
Several values for one entry are separate records, joined by “and”; a condition that tells them apart may be missing. Equal values may be shown once.

Experiments:
[1] = tested on: Ovalbumin-induced Allergic Rhinitis; experiment: Ovalbumin-induced allergic rhinitis in mice, prophylactic effect; format: in vivo, BALB/c mice
Protocol: BALB/c mice were sensitized by i.p. injection of OVA emulsified in alum (Day 0, 5, 14, 21). Groups of mice were each challenged by intranasal injection of OVA (Day 22-35, 38). Control group mice received an equal volume of vehicle by intranasal injection. Nasal symptoms (number of sneezes and episodes of nose rubbing by the front paws) were counted during the 5 min period following the last intranasal injection (Day 38). […] The histamine receptor antagonist […]® was used as a positive control.

[2] = tested on: ovalbumin (OVA)-induced asthma; experiment: Ovalbumin (OVA)-induced asthma in mice, mast cell-dependent model; format: in vivo; details: 30 mg/kg i.p., Day 42-46
Protocol: Mice were sensitized by i.p. injection with OVA in saline (10 μg) on alternate days (Day 0, 2, 4, 6, 8, 10, 12). Groups of mice were each challenged by intranasal injection of OVA (Day 40, 43, 46). Compound 17 was administered by i.p. injection (30 mg/kg) on consecutive days (Day 42, 43, 44, 45, 46). Compared to vehicle, leukocyte influx was inhibited by 95% and 55% (in two separate assays), LTC4 influx was inhibited by 90% and IL-4 influx was inhibited by 85%.

[3] = tested on: ovalbumin (OVA)-induced asthma; experiment: Ovalbumin (OVA)-induced asthma in mice, mast cell-independent model; format: in vivo
Protocol: Mice were sensitized by i.p. injection of OVA emulsified in adjuvant (Day 1 and 14). Groups of mice were each challenged by intranasal injection of OVA (Day 25, 26, 27). Compound 17 was administered by i.p. injection (10 and 30 mg/kg) before each intranasal challenge (Day 25, 26, 27).

[4] = tested on: Ovalbumin-induced Allergic Rhinitis; experiment: Ovalbumin-induced allergic rhinitis in mice, therapeutic effect; format: in vivo, BALB/c mice
Protocol: BALB/c mice were sensitized by i.p. injection of OVA emulsified in alum (Day 0, 5, 14, 21). Groups of mice were each challenged by intranasal injection of OVA (Day 22-35, 38).
Control group mice received an equal volume of vehicle by intranasal injection. Nasal symptoms (number of sneezes and episodes of nose rubbing by the front paws) were counted during the 5 min period following the last intranasal injection (Day 38).
The anti-histamine Pyralimine and the mast cell-stabilizing agent Ketotifen were used as positive controls.

CCR2 = molecular target: T1, CCR2 (Homo sapiens, UniProt P41597); experiment: MCP-1 Receptor Binding Assay in THP-1 Cells; details: THP-1 cells, 0.5 nM 125I labeled MCP-1, 2 hours at 30° C.; read-out: Mean Ligand Binding IC50 (inhibition of MCP-1 binding to CCR2)
T1 sequence (P41597 1-360 isoform P41597-2): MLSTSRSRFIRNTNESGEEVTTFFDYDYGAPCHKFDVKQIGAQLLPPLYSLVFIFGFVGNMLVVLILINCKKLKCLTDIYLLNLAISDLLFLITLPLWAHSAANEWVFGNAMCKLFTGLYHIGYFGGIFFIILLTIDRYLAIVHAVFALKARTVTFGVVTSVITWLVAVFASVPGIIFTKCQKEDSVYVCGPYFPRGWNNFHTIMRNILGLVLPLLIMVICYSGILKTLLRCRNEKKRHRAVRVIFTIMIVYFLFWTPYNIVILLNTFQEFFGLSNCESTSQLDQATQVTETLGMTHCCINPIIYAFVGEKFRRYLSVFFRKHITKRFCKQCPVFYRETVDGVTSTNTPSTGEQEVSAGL
Outline: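 THP-1 cells; bound radioactivity collected on filter plates and counted by scintillation. Buffer-only blanks subtracted, drug-treated values compared with vehicle; nonspecific binding defined with 1 μM unlabeled MCP-1.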

[5] = positive control, dose not given
[6] = intranasal 10 μg/nostril four times per day, Days 29-38
[7] = positive controls, dose not given

CN1CCCC(n2nc(Cc3ccc(Cl)cc3)c3ccccc3c2=O)CC1 (stereo not drawn) [Astelin, reference compound]
inhibition of nasal symptoms (rubbing) [1, 5]: 89% | inhibition of nasal symptoms (sneezing) [1, 5]: 51%

C[N+](C)(Cc1ccc(NC(=O)c2ccc(Cl)c(Cl)c2)cc1)C1CCOCC1.[Cl-] [Cpd 17, [4-(3,4-dichloro-benzoylamino)-benzyl]-dimethyl-(tetrahydro-pyran-4-yl)-ammonium chloride]
inhibition of IL-4 influx compared to vehicle [2]: 85% | inhibition of LTC4 influx compared to vehicle [2]: 90% | inhibition of leukocyte influx compared to vehicle ([2]; two separate assays): 95% and 55% | inhibition of nasal symptoms (rubbing) ([1]; intranasal 10 μg/nostril): 57% | inhibition of nasal symptoms (sneezing) ([1]; intranasal 10 μg/nostril): 64% | inhibition of nasal symptoms (rubbing) ([1]; intranasal 30 μg/nostril): 71% | inhibition of nasal symptoms (sneezing) ([1]; intranasal 30 μg/nostril): 82% | inhibition of leukocyte influx compared to vehicle ([3]; 10 mg/kg i.p. before each intranasal challenge): 40% | inhibition of leukocyte influx compared to vehicle ([3]; 30 mg/kg i.p. before each intranasal challenge): 70% | inhibition of nasal symptoms (rubbing) [4, 6]: 42% | inhibition of nasal symptoms (sneezing) [4, 6]: 0%

C[N+](C)(Cc1ccc(NC(=O)c2cc(Cl)sc2Cl)cc1)C1CCOCC1 [Cpd 175, {4-[(2,5-dichloro-thiophene-3-carbonyl)-amino]-benzyl}-dimethyl-(tetrahydro-pyran-4-yl)-ammonium iodide]
IC50 (CCR2): 1500 nM

C[N+](C)(Cc1ccc(NC(=O)c2cc3ccccc3s2)cc1)C1CCOCC1 [Cpd 176, {4-[(benzo[b]thiophene-2-carbonyl)-amino]-benzyl}-dimethyl-(tetrahydro-pyran-4-yl)-ammonium iodide]
IC50 (CCR2): 260 nM

C[N+](C)(Cc1ccc(NC(=O)c2cc3ccccc3s2)cc1)C1CCCCC1 [Cpd 177, {4-[(benzo[b]thiophene-2-carbonyl)-amino]-benzyl}-cyclohexyl-dimethyl-ammonium iodide]
IC50 (CCR2): 170 nM

C[N+](C)(Cc1ccc(NC(=O)c2sc3ccccc3c2Cl)cc1)C1CCCCC1 [Cpd 178, {4-[(3-chloro-benzo[b]thiophene-2-carbonyl)-amino]-benzyl}-cyclohexyl-dimethyl-ammonium iodide]
IC50 (CCR2): 8800 nM

CN1CCC(=C2c3ccccc3CC(=O)c3sccc32)CC1 [Ketotifen]
inhibition of nasal symptoms (rubbing) [4, 7]: 81% | inhibition of nasal symptoms (sneezing) [4, 7]: 50%

COc1ccc(CN(CCN(C)C)c2ccccn2)cc1 [Pyralimine]
inhibition of nasal symptoms (rubbing) [4, 7]: 85% | inhibition of nasal symptoms (sneezing) [4, 7]: 60%
